# Laboratory results published in patent publication US20230364051A1, “FORMULATIONS AND METHODS FOR IMPROVING AVIAN HEALTH” (CORNELL UNIVERSITY, priority 2022, published 2023).
# Marks after values point to notes of the source that are not given here.
# System: duodenum
# Assay: Duodenal tissue morphology examination (villi, crypts, goblet cells, Paneth cells)
# Assay type: in vivo, Gallus gallus
# Conditions: for # Crypt Paneth Cells / Crypt Depth / Crypt Goblet Cell Diameter / Crypt Goblet Cell Number Acidic / Crypt Goblet Cell Number Mixture / Crypt Goblet Cell Number Neutral / Crypt Goblet Cell Number Total / Crypt Paneth cell Diameter / Villi Goblet Cell Diameter / Villi Goblet Cell Number Acidic / Villi Goblet Cell Number Mixture / Villi Goblet Cell Number Neutral / Villi Goblet Cell Number Total / Villus Height / Villus Surface Area / Villus Width: day 17, duodenum at hatch
# Procedure: Cornish-cross fertile broiler eggs (Gallus gallus, n = 39) were obtained from a commercial hatchery (Moyer’s chicks, Quakertown, PA, USA). The eggs were incubated under optimal conditions at the Cornell University Animal Science Poultry Farm Incubator [18]. […] Each group was then injected with the specific solution (1 mL per egg) with a 21-gauge needle into the amniotic fluid. Treatments in powder form were separately diluted in DI H2O. […] After injection, the injection holes were sealed with cellophane tape and the eggs were placed in hatching baskets such that each treatment was equally represented at each incubator location. Immediately upon hatch (day 21), blood was taken for hemoglobin determination and all chicks were then euthanized by CO2 exposure. The small intestine, pectoral muscle, cecum, and liver were collected, immediately frozen in liquid nitrogen, and then stored in a -80° C. freezer until analysis.
# Intestinal morphology examination was performed as was previously described. Duodenum samples were fixed in fresh 4 wt. % (v/v) buffered formaldehyde, dehydrated, cleared, and embedded in paraffin. Serial sections were cut at 5 µm and placed on glass slides. Intestinal sections were deparaffinized in xylene, rehydrated in a graded alcohol series, stained with Alcian Blue/Periodic acid-Schiff, and examined by light microscopy. The following variables were measured in the intestine: villus height, villus width, crypt depth, Paneth cell number per crypt, Paneth cell width, goblet cell number, goblet cell diameter, types of goblet cells in the villi epithelium, and types of goblet cells within the crypts. Measurements in each segment were performed with a light microscope using CellSens Standard software (Olympus, Waltham, MA, USA).
# [1] = 1.25 wt. % genistein intraamniotic
# [2] = 2.5 wt. % genistein intraamniotic
# [3] = 2.5 wt. % genistein vs no injection and H2O, p < 0.05
# [4] = 2.5 wt. % vs 1.25 wt. % genistein, p < 0.05
# [5] = both genistein treatment groups vs control groups, p < 0.05
# [6] = genistein treatment groups (1.25, 2.5 wt. %) vs no injection, H2O and inulin, p < 0.05
smiles,measurement,setting,value
"O=c1c(-c2ccc(O)cc2)coc2cc(O)cc(O)c12 [Genistein, genistein]",# Crypt Paneth Cells,[1],2.92 ± 0.10 ^b
same,Crypt Depth,[1],26.36 ± 0.46 ^c µm
same,Crypt Goblet Cell Diameter,[1],2.89 ± 0.02 ^a µm
same,Crypt Goblet Cell Number Acidic,[1],8.51 ± 0.14 ^a Unit
same,Crypt Goblet Cell Number Mixture,[1],0.74 ± 0.06 ^d Unit
same,Crypt Goblet Cell Number Neutral,[1],0.00 ± 0.00 ^a Unit
same,Crypt Goblet Cell Number Total,[1],9.25 ± 0.14 ^ab Unit
same,Crypt Paneth cell Diameter,[1],1.78 ± 0.04 ^a µm
same,Villi Goblet Cell Diameter,[1],3.41 ± 0.03 ^b µm
same,Villi Goblet Cell Number Acidic,[1],23.49 ± 0.67 ^a Unit
same,Villi Goblet Cell Number Mixture,[1],1.69 ± 0.13 ^e Unit
same,Villi Goblet Cell Number Neutral,[1],0.09 ± 0.03 ^b Unit
same,Villi Goblet Cell Number Total,[1],25.26 ± 0.67 ^a Unit
same,Villus Height,[1],204.18 ± 3.73 ^b µm
same,Villus Surface Area,[1],146.97 ± 4.55 ^c mm2
same,Villus Width,[1],44.51 ± 0.86 ^c µm
same,Crypt goblet cell diameter vs controls,"1.25 wt. % genistein vs all control groups, p < 0.05",significantly greater
same,Crypt Paneth cell diameter vs controls,"1.25 wt. % genistein vs no injection and 5 wt. % inulin, p < 0.05",significantly (p < 0.05) higher
same,Villus width vs controls,"1.25 wt. % genistein vs no injection and H2O, p < 0.05",significantly (p < 0.05) greater
same,# Crypt Paneth Cells,[2],3.24 ± 0.11 ^a
same,Crypt Depth,[2],23.65 ± 0.46 ^d µm
same,Crypt Goblet Cell Diameter,[2],2.63 ± 0.02 ^b µm
same,Crypt Goblet Cell Number Acidic,[2],8.81 ± 0.19 ^a Unit
same,Crypt Goblet Cell Number Mixture,[2],0.88 ± 0.06 ^d Unit
same,Crypt Goblet Cell Number Neutral,[2],0.00 ± 0.00 ^a Unit
same,Crypt Goblet Cell Number Total,[2],9.68 ± 0.19 ^a Unit
same,Crypt Paneth cell Diameter,[2],1.65 ± 0.03 ^b µm
same,Villi Goblet Cell Diameter,[2],3.50 ± 0.03 ^a µm
same,Villi Goblet Cell Number Acidic,[2],22.01 ± 0.51 ^b Unit
same,Villi Goblet Cell Number Mixture,[2],2.70 ± 0.16 ^d Unit
same,Villi Goblet Cell Number Neutral,[2],0.19 ± 0.04 ^a Unit
same,Villi Goblet Cell Number Total,[2],24.89 ± 0.54 ^a Unit
same,Villus Height,[2],238.22 ± 3.17 ^a µm
same,Villus Surface Area,[2],184.13 ± 4.66 ^b mm2
same,Villus Width,[2],48.27 ± 0.87 ^b µm
same,Crypt goblet cell diameter vs inulin,2.5 wt. % genistein vs 5 wt. % inulin,significantly higher
same,Villus height vs controls,[3],significantly increased
same,Villus surface area vs controls,[3],significantly increased
same,Villus width vs controls,[3],significantly increased
same,"Villus height, dose comparison",[4],significantly higher
same,"Villus surface area, dose comparison",[4],significantly higher
same,"Villus width, dose comparison",[4],significantly higher
same,Acidic villi goblet cell count vs controls,[5],significantly higher
same,Neutral villi goblet cell count vs controls,[5],significantly higher
same,Mixture villi goblet cells vs controls,"both genistein treatment groups vs controls, p < 0.05",significantly reduced
same,Acidic crypt goblet cell count vs controls,"both genistein treatment groups vs no injection, H2O and inulin, p < 0.05",significantly higher
same,Total crypt goblet cell count vs controls,"genistein exposure vs no injection and H2O, p < 0.05",significantly higher
same,Mixed crypt goblet cells vs controls,"genistein exposure vs no injection, H2O and inulin, p < 0.05",significantly reduced
same,Total number of villi goblet cells vs controls,[6],significantly higher
same,Villi goblet cell diameter vs controls,[6],significantly higher
same,Crypt depth vs control,"genistein treatment groups vs H2O-injection group, p < 0.05",significantly lower
same,Number of crypt Paneth cells vs controls,"genistein treatment groups vs no injection, H2O and inulin, p < 0.05",significantly greater
